{
  "source": "paper PMC3813382",
  "about": "(The Journal of General Physiology, 2013)",
  "key": {"[1]": {"target": "T1, E275D Slo2.1 channels (Homo sapiens, UniProt Q6UVM3, E275D)", "T1 sequence (Q6UVM3 1-1135 E275D)": "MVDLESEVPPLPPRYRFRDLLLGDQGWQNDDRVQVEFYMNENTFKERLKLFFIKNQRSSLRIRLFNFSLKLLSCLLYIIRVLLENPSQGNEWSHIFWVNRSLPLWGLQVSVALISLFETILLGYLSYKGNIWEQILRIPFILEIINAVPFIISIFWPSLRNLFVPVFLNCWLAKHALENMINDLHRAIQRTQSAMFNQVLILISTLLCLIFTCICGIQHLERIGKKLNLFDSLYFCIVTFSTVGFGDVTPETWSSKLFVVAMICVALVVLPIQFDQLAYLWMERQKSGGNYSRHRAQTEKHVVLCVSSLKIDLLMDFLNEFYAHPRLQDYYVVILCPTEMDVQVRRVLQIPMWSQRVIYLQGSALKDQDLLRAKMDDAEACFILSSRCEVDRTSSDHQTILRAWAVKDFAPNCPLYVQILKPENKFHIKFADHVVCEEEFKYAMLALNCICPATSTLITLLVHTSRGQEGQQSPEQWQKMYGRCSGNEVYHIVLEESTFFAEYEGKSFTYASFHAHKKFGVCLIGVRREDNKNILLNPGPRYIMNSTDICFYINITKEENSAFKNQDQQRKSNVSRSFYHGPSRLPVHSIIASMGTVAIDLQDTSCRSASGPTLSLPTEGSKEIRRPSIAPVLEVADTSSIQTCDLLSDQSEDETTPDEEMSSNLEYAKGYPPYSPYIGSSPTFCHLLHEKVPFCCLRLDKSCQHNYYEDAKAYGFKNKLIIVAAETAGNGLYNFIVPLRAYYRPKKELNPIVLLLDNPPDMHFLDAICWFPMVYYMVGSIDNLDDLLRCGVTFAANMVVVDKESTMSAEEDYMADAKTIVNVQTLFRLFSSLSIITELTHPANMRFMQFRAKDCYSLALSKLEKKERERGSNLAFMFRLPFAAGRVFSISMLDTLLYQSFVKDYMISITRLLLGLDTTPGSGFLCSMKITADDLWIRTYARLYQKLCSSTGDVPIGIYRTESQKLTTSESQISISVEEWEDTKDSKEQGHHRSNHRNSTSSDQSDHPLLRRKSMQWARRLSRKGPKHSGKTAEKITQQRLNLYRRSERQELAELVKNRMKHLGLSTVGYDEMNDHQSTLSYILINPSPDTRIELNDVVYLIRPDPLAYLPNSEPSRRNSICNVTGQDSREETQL", "assay": "Activation of ISlo2.1 by NFA, two-electrode voltage clamp in oocytes", "type": "cell-based"}, "[2]": {"target": "T2, C236A Slo2.1 channels (Homo sapiens, UniProt Q6UVM3, C236A)", "T2 sequence (Q6UVM3 1-1135 C236A)": "T1 sequence (Q6UVM3 1-1135 E275D) with C236A, D275E", "assay": "Activation of ISlo2.1 by NFA, two-electrode voltage clamp in oocytes", "type": "cell-based", "conditions": "1 mM NFA, 0 mV"}},
  "note": "Changes are numbered by the printed parent chain.",
  "data": [
    {"compound": "O=C(O)c1cccnc1Nc1cccc(C(F)(F)F)c1", "note": "[NFA, niflumic acid]", "values": [
      {"measurement": "EC50", "setting": "[1]", "value": 192, "unit": "µM"},
      {"measurement": "Hill coefficient nH of NFA activation", "setting": "[1]; E275D", "value": "1.08 ± 0.09"},
      {"measurement": "EC50 for E275D lower than EC50 for WT channels", "setting": "[1]; E275D vs WT", "value": 11, "unit": "fold"},
      {"measurement": "maximal increase in current at 0 mV", "setting": "[1]; E275D, 3 mM NFA (maximally effective concentration)", "value": "~2.5", "unit": "fold"},
      {"measurement": "response of C236A channels to NFA", "setting": "[2]", "value": "insensitive to 1 mM NFA"}
    ]}
  ]
}
